Experimental data published in patent publication US20210145768A1, “MODULATING IMMUNE RESPONSE VIA TARGETING OF OLFACTORY RECEPTOR ACTIVITY” (La Jolla Institute for Allergy and Immunology, priority 2018, published 2021).

Assays:
Format in all cases: cell-based
Parameters in all cases: Olfr2 expression was confirmed at the protein level on F4/80^+ vascular macrophages; from tissue; host or cells: explanted whole aortas, digested aortic cell suspensions (F4/80+ vascular macrophages) and blood monocytes of Apoe-/- C57BL/6J mice; living Apoe-/- mice for the in vivo study
Olfr2 [1] = target: T1, Olfr2 (Mus musculus, UniProt Q9QWU6); experiment: Secreted cytokines in supernatants of stimulated aortas (cytokine bead array); details: octanal 10 μM + LPS 500 ng/mL, 12 h, cytometric bead array
T1 sequence (Q9QWU6 1-327): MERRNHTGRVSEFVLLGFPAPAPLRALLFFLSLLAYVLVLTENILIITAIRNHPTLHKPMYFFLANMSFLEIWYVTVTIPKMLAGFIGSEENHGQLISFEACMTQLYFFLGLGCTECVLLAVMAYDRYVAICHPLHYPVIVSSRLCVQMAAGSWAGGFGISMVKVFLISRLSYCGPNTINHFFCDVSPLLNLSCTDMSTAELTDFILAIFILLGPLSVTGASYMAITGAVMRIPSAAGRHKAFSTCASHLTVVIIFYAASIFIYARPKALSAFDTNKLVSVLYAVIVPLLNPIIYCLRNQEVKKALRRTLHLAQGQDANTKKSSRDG
Protocol: Apoe^−/− mice were fed WD for 2 weeks before sacrifice for aorta explant culture. Whole aortas were incubated in culture medium with DMSO (0.1% as a vehicle), octanal (Oct, 10 μM), LPS (500 ng/mL) alone or octanal and LPS combined (LPS+Oct) for 12 h at 37° C. and 5% CO2. Subsequently, aortas were collected and further processed as below discussed for RNA extraction, and flow cytometry analysis. Culture supernatants were collected, aliquoted, and frozen at −80° C. until further analysis.
Supernatants of stimulated cells and aortic tissue were analyzed by BD CBA Flex Sets (BD Biosciences) for mouse TNFα, CCL2, CCL4, IL-1β, or human TNF, IL6, and IL-1β according to the manufacturer's protocol. Samples were analyzed with LSR-II (BD Biosciences). Data was acquired with FACSDiva software (BD Biosciences) and analyzed with FCAP array software 3.0 (BD Biosciences).

Olfr2 [2] = target: T1, Olfr2; experiment: Inflammatory gene expression (real time PCR) in explanted whole aortas treated with octanal, citral, LPS; details: dose response 3, 10, 30 μM octanal, 12 h
Olfr2 [3] = target: T1, Olfr2; experiment: Intracellular TNF staining in vascular macrophages and blood monocytes (flow cytometry); details: octanal
Protocol: To assess the functional properties of Olfr2 in monocytes, cells were enriched form Apoe−/− mice blood by the negative selection. Purified monocytes were then incubated as described above. TNF expression (TNF-PE) was evaluate by intracellular staining protocol by flow cytometry. Classical and non-classical monocytes were divided as previously described (Live, CD115+, LyC6+, and LyC6− respectively). […] Data are presented as means±SEM. *p<0.05, **p<0.01, ***p<0.005, ****p<0.001. p calculated by One-Way ANOVA test, Tukey's multiple comparisons test.
Whole aortas and mouse blood leukocytes were incubated in culture medium with Oct, (10 μM), LPS, (500 ng/mL) alone or combined (LPS+Oct) for 12h at 37° C. and 5% CO2. The protein transport inhibitor cocktail 1× (eBioscience) was added for whole 12h in the whole aorta samples and for the last 6 hours in the mouse blood leukocyte samples. […]
Cells were then washed, fixed, permeabilized applying the Intracellular Fixation and Permeabilization Buffer Set (eBioscience), and stained with mouse anti-TNF-PE (eBioscience). Samples were analyzed with LSR-II (BD Biosciences). Data was acquired with FACSDiva software (BD Biosciences) and analyzed with FlowJo software (Treestar Inc).

## CCCCCCCC=O [octanal]
Olfr2 [1]
  secretion of TNF, CCL2 and CCL4 protein into supernatant of treated aortas: enhanced production
Olfr2 [1]; listed as Octanal
  secretion of TNF, CCL2 and CCL4 protein into supernatant of treated aortas: enhanced the secretion
Olfr2 [2]
  octanal concentration at which enhancement of LPS-induced expression peaks: 3 to 10 µM
Olfr2 [3]
  TNF expression in Ly6C+ and Ly6C− blood monocytes: boosted
